From patent US10670605B2, “Cysteine reactive probes and uses thereof” (The Scripps Research Institute, priority 2015, dated 2020)
“And” between values parts separate entries of the source, which are not always exact repeats. Identical values can stand only once.

Molecular target: T1, USP28 C171 (Q96RU2) (Homo sapiens, UniProt Q96RU2)
T1 sequence (Q96RU2 1-1077): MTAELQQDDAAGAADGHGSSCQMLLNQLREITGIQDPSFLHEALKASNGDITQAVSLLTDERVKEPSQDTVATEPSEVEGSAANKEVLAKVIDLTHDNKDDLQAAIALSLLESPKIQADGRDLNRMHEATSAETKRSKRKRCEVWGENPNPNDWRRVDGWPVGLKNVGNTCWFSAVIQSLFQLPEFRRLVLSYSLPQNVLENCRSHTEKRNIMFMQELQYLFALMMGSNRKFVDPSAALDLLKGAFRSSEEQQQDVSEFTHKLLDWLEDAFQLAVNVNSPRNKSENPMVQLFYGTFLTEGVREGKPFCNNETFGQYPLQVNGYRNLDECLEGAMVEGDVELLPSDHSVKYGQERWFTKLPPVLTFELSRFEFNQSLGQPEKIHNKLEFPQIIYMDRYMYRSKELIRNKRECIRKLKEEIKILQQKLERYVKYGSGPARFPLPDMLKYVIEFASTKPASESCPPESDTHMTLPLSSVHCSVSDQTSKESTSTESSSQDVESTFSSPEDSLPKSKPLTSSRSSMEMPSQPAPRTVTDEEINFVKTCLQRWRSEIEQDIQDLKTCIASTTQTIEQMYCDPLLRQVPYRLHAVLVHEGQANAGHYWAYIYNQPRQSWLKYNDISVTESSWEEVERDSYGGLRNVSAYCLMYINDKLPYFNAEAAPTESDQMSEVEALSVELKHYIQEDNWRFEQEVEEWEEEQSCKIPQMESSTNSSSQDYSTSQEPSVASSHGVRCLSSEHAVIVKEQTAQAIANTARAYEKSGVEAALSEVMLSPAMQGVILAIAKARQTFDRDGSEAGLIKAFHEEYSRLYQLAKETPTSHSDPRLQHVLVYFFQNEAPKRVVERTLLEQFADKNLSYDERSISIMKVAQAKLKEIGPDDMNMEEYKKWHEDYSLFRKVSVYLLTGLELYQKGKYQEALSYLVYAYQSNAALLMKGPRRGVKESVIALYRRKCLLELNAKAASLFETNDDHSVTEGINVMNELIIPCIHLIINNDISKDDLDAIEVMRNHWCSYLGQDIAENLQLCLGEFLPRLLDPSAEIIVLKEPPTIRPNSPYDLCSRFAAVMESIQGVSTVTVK
Experiment: Competitive isoTOP-ABPP, cell lysates
Type: binding
Conditions: for R value (DMSO/fragment) / isoTOP-ABPP ratio, Q96RU2_C171: 500 μM, invitro

Structure (SMILES): COc1ccc2c(c1)CCCN2C(=O)CCl [compound 2]
- R value (DMSO/fragment) (ramos): 1.1

Structure (SMILES): O=C(CCl)Nc1cc(C(F)(F)F)cc(C(F)(F)F)c1 [compound 3]
- R value (DMSO/fragment) (ramos): 1.7

Structure (SMILES): CNS(=O)(=O)C=Cc1ccc2c(ccn2Cc2ccccc2)c1 [compound 6]
- isoTOP-ABPP ratio, Q96RU2_C171 231: 0.8

Structure (SMILES): O=C(CCl)N1CCN(S(=O)(=O)c2ccccc2F)CC1 [compound 10]
- isoTOP-ABPP ratio, Q96RU2_C171 231: 1.4

Structure (SMILES): Cn1cc(S(=O)(=O)N2CCOCC2)cc1C(=O)NC(=O)CCl [compound 11]
- isoTOP-ABPP ratio, Q96RU2_C171 231: 20.0

Structure (SMILES): O=C(CCl)NCCc1c[nH]c2ccccc12 [compound 13]
- isoTOP-ABPP ratio, Q96RU2_C171 (ramos): 2.4

Structure (SMILES): O=C(CCl)N1CCC(C(O)(c2ccccc2)c2ccccc2)CC1 [compound 20]
- isoTOP-ABPP ratio (reactivity profile), Q96RU2_C171 (500 μm in-vitro ramos): 2.4

Structure (SMILES): O=C(CCl)NC12CC3CC(CC(C3)C1)C2 [compound 21]
- isoTOP-ABPP ratio (reactivity profile), Q96RU2_C171 (500 μm in-vitro ramos_231): 1.1

Structure (SMILES): N#C/C(=C\c1cc(C(F)(F)F)cc(C(F)(F)F)c1)C(N)=O [compound 23]
- isoTOP-ABPP ratio (reactivity profile), Q96RU2_C171 (500 μm in-vitro ramos): 1.2

Structure (SMILES): CC(C)CCOCCNC(=O)CCl [compound 27]
- isoTOP-ABPP ratio (reactivity profile), Q96RU2_C171 (500 μm in-vitro ramos_231): 0.9 and 1.2

Structure (SMILES): C=CC(=O)Nc1cc(F)c(N2CCN(C(=O)OC(C)(C)C)CC2)c(F)c1 [compound 38]
- isoTOP-ABPP reactivity ratio, Q96RU2_C171 (500 μm, in-vitro_ramos_231): 3.3

Structure (SMILES): C=CC(=O)N(c1ccccc1)C1CCCCC1 [compound 46]
- isoTOP-ABPP reactivity profile ratio, Q96RU2_C171 (500 μm, in-vitro_ramos_231): 0.9
